Source: patent publication US6696457B1, “Morphinoid compounds” (SmithKline Beecham p.l.c., priority 1999, dated 2004)
pIC50: −log10 of the molar value. Where a name gives a salt, the structure may show the parent alone.

Columns and labels:
[1] = metabolic stability: intrinsic clearance in liver microsomes; assay type: in vitro ADME, human; conditions: 0.5 uM compound, 0.5 mg/ml microsomal protein, 37° C., 30 minutes, NADPH regenerating system
Protocol: The metabolic stability of the compounds of the invention was determined in the following manner: the compounds were incubated (37° C.) at 0.5 uM over 30 minutes with microsomal protein (at a concentration of 0.5 mg/ml) and an NADPH regenerating system (cofactor); the incubation volume was made up to a total of 1 mL with 50 mM potassium phosphate buffer (pH 7.4).
All of the incubation components, apart from cofactor, were pre-incubated for approximately 5 minutes then the reaction was started by the addition of cofactor solution. 50 uL samples were removed from the incubation at 3 minute intervals and placed into 200 uL of acetonitrile (containing an Internal Standard) to precipitate the microsomal protein and terminate the reaction.
All samples were analysed by LC/MS for parent compound and Internal Standard (I.S) and the results calculated as peak area ratios: compound/I.S.
The peak area ratios were plotted against time and intrinsic clearance values were calculated from the fitted exponential decay curve:
CLint (mL/min/g liver)=(k·V·microsomal yield)/[protein] […]
k=rate constant from the exponential decay curve
V=incubation volume (1 mL) microsomal yield=standard microsomal protein yield from 1 g liver (52.5 mg) [protein]=protein concentration in each incubation (0.5 mg/mL); a solution containing 0.5 uM of the compound under study was incubated with 0.5 mg of liver microsomal protein over 30 min at 37° C. Samples were taken, protein precipitated with acetonitrile and centrifuged prior HPLC-MS analysis.

[2] = target: T1, human delta opioid receptor (h-DOR/CHO) (Homo sapiens, UniProt P41143); test: cAMP bioassay: inhibition of forskolin-stimulated cAMP in h-DOR/CHO cells; assay type: cell-based
T1 construct: expressed in transfected cells
T1 sequence (P41143 whole entry): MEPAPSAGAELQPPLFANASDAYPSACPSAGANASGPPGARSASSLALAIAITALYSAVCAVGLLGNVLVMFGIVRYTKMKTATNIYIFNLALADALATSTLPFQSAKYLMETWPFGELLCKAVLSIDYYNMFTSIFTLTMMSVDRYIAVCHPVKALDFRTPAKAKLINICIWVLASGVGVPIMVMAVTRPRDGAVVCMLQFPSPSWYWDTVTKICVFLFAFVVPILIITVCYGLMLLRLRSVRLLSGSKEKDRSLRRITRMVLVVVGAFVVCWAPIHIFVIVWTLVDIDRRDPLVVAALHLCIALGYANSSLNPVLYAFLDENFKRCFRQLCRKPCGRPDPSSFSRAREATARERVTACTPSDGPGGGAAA
Protocol: The delta agonistlantagonist activity of the compounds of the present invention is determined in the cAMP bioassay in CHO cell lines stably expressing the human delta opioid receptor (h-DOR/CHO).
For the cAMP assay whole h-DOR/CHO cells were incubated with test compounds in Krebs-Ringer 200 mM, buffered with HEPES, containing (mM): NaCl (125), KCl (5), KH2PO4 (0.4), MgSO4 (1.2), CaCl2 (1.2), NaHCO3(25), glucos (12) and IBMX (1). Cells were treated with forskolin […] to stimulate cAMP synthesis.
The cAMP content was determined using a double antibody [^125I]-cAMp radioimmunoassay (Amersham RPA 509). The data were normalised to protein content.

[3] = in vivo clearance and absolute bioavailability

For `Cc1c(C(=O)N(Cc2ccccc2)C(C)C)[nH]c2c1C[C@@]1(O)[C@H]3Cc4ccccc4[C@@]1(CCN3)C2` (as salt: hydrochloride) [Example 2, [10R,4bR-(4b beta,9a beta)]-7-[(N-benzyl-N-isopropyl)aminocarbonyl]-8-methyl-4b,5,9,9a, 10,11-hexahydro-9a-hydroxy-(6H)-10,4b-(iminoethano)phenanthro-[3,2-b]pyrrole], which melting point is on record?
Its melting point is greater than 250 °C.

With `Cc1c(C(=O)N(C(C)C)C(C)C)[nH]c2c1CC1(O)C3Cc4ccccc4C1(CCN3)C2` (stereo not drawn) [Example 1, [10R,4bR-(4b beta,9a beta)]-7-(N,N-diisopropyl)aminocarbonyl-8-methyl-4b,5,9,9a, 10,11-hexahydro-9a-hydroxy-(6H)-10,4b-(iminoethano)phenanthro[3,2-b]pyrrole] as the molecule, how does the “in vitro Clearance (human microsomes) CL” value [1] read?
The value was 1.3 ml/min/g liver.

Which results are given for `Cc1c(C(=O)N(Cc2ccccc2)C(C)C)[nH]c2c1C[C@@]1(O)[C@H]3Cc4ccccc4[C@@]1(CCN3)C2` [Example 2, [10R,4bR-(4b beta,9a beta)]-7-[(N-benzyl-N-isopropyl)aminocarbonyl]-8-methyl-4b,5,9,9a, 10,11-hexahydro-9a-hydroxy-(6H)-10,4b-(iminoethano)phenanthro-[3,2-b]pyrrole]?
pIC50 [2]: 8.94; antagonism of the agonist activity by the selective delta antagonist naltrindole ([2]; naltrindole 100 nM, h-DOR/CHO cells): completely antagonised

Which “in vitro Clearance (human microsomes) CL” value [1] does the source give for `CCN(CC)C(=O)c1[nH]c2c(c1C)C[C@@]1(O)[C@H]3Cc4ccccc4[C@@]1(CCN3)C2` [Example 3, [10R,4bR-(4b beta,9a beta)]-7-(N,N-diethyl)aminocarbonyl-8-methyl-4b,5,9,9a, 10,11-hexahydro-9a-hydroxy-(6H)-10,4b-(iminoethano)phenanthro[3,2-b]pyrrole] here?
Its value is 0.8 ml/min/g liver.

What about the “in vivo Clearance CL” value [3] of the same molecule?
Its value is 27 ± 2 mL/min/kg.

What about the “in vivo Absolute bioavailability F ipv” value ([3]; ipv) of the same molecule?
Its value is 60 ± 7%.

For `Cc1c(C(=O)N(Cc2ccccc2)C(C)C)[nH]c2c1CC1C3Cc4ccccc4C1(CCN3)C2` (stereo not drawn) [Example 4, [10R,4bS-(4b beta,9a beta)]-7-(N-isopropyl-N-benzyl)aminocarbonyl-8-methyl-4b,5,9,9a, 10,11-hexahydro-(6H)-10-,4b-(iminoethano)phenanthro[3,2-b]pyrrole], which “in vitro Clearance (human microsomes) CL” value [1] is on record?
Its value is 3.3 ml/min/g liver.

With `CCN(Cc1ccccc1)C(=O)c1[nH]c2c(c1C)CC1(O)C3Cc4ccccc4C1(CCN3)C2` (stereo not drawn) [Example 5, [10R,4bR-(4b beta,9a beta)]-7-(N-benzyl-N-ethyl)aminocarbonyl-8-methyl-4b,5,9,9a, 10,11-hexahydro-9a-hydroxy-(6H)-10,4b-(iminoethano)phenanthro[3,2-b]pyrrole] as the molecule, how does the “in vitro Clearance (human microsomes) CL” value [1] read?
Its value is 2.0 ml/min/g liver.

For `Cc1c(C(=O)N2CCc3ccccc3C2)[nH]c2c1CC1(O)C3Cc4ccccc4C1(CCN3)C2` (stereo not drawn) [Example 6, [10R,4bR-(4b beta,9a beta)]-7-(1,2,3,4-tetrahydroisoquinolin-2-yl)carbonyl-8-methyl-4b,5,9,9a, 10,11-hexahydro-9a-hydroxy-(6H)-1 0,4b-(iminoethano)phenanthro[3,2-b]pyrrole], which “in vitro Clearance (human microsomes) CL” value [1] is on record?
The value was less than 0.6 ml/min/g liver.

With `Cc1c(C(=O)CC(C)C)[nH]c2c1C[C@@]1(O)[C@H]3Cc4ccccc4[C@@]1(CCN3)C2` [Example 7, [10R,4bR-(4b beta,9a beta)]-7-isobutylcarbonyl-8-methyl4b,5,9,9a,10,11-hexahydro-9a-hydroxy-(6H)-10,4b-(iminoethano)phenanthro[3,2-b]pyrrole] as the molecule, how does the melting point read?
Its melting point is 170 to 175 °C.

What about the “in vitro Clearance (human microsomes) CL” value [1] of the same molecule?
The value was less than 0.6 ml/min/g liver.

Which “in vitro Clearance (human microsomes) CL” value [1] does the source give for `CCN(C(=O)c1[nH]c2c(c1C)C[C@@]1(O)[C@H]3Cc4ccccc4[C@@]1(CCN3)C2)c1ccccc1` [Example 8, [10R,4bR-(4b beta,9a beta)]-7-[(N-phenyl-N-ethyl)aminocarbonyl]-4b,5,9,9a, 10,11-hexahydro-9a-hydroxy-(6H)-8-methyl-10,4(iminoethano)-phenanthro[3,2-b]pyrrole] here?
Its value is 5.9 ml/min/g liver.

Which “in vitro Clearance (human microsomes) CL” value [1] does the source give for `Cc1c2c(n(C)c1C(=O)N(Cc1ccccc1)C(C)C)CC13CCNC(Cc4ccccc41)C3(O)C2` (stereo not drawn) [Example 10, [10R,4bS-(4b beta,9a beta)]-7-(N-benzyl-N-isopropyl)aminocarbonyl-6,8-dimethyl-4b,5,9,9a, 10,11-hexahydro-9a-hydroxy-(6H)-10,4b-(iminoethano)-phenanthro[3,2-b]pyrrole] here?
Its value is 5.2 ml/min/g liver.

Which “in vitro Clearance (human microsomes) CL” value [1] does the source give for `CCN(Cc1ccccc1)C(=O)c1c(C)c2c(n1C)CC13CCNC(Cc4ccccc41)C3C2` (stereo not drawn) [Example 11, [10R,4bS-(4b beta,9a beta)]-7-(N-ethyl-N-benzyl)aminocarbonyl-6,8-dimethyl-4b,5,9,9a,10,11-hexahydro-(6H)-10-,4b-(iminoethano)phenanthro[3,2-b]pyrrole] here?
Its value is 13.0 ml/min/g liver.

With `Cc1c(C(=O)N2CCc3ccccc3C2)[nH]c2c1CC1(O)C3Cc4ccccc4C1(CCN3C)C2` (stereo not drawn) [Example 21, [10R,4bR-(4b beta,9a beta)]-7-(1,2,3,4-tetrahydroisoquinolin-2-yl)carbonyl-8,14-dimethyl-4b,5,9,9a,10,11-hexahydro-9a-hydroxy-(6H)-10,4b-(iminoethano)phenanthro-[3,2-b]pyrrole] as the molecule, how does the “in vitro Clearance (human microsomes) CL” value [1] read?
The value was 6.0 ml/min/g liver.

Which “in vitro Clearance (human microsomes) CL” value [1] does the source give for “[10R,4bR-(4bb,9ab)]-7-(N,N-diisopropyl)aminocarbonyl-8,14-dimethyl4b,5,9,9a,10,11-hexahydro9a-hydroxy-(6H)-10,4b-(iminoethano)phenanthro[3,2-b]pyrrole. [Example 19]” here?
The value was 5.7 ml/min/g liver.

Which “in vitro Clearance (human microsomes) CL” value [1] does the source give for “[10R,4bS-(4b beta,9a beta)]-7-(N-ethyl-N-phenyl)aminocarbonyl-8-methyl-4b,5,9,9a, 10,11-hexahydro-(6H)-10,4b-(iminoethano)phenanthro[3,2-b]pyrrole [Example 9]” here?
Its value is 4.5 ml/min/g liver.
